Data reported in article PMC7552917, “Systematic exploration of different E3 ubiquitin ligases: an approach towards potent and selective CDK6 degraders” (Chemical Science, 2020).
Like-named read-outs stand apart in the source and are kept apart here.

Assays:
[1] = set-up: method as in earlier work; conditions: calibration compounds; cited from earlier work
[2] = elog D7.4 by chromatographic (HPLC) method; format: physicochemical; conditions: Polaris C18-A column, pH 7.4, read-out: elog D7.4 (experimental distribution coefficient at pH 7.4)
Protocol: Supplementary Information: Physical Chemistry
N. Molecular Descriptor Calculation […]
O. Physicochemical Measurements
The determination of the elog D7.4 values was performed by a chromatographic method according to […]
The column was a Polaris C18-A column (2 mm I.D., 50 mm length, 3 μm particle size) from Agilent Technologies. A linear mobile phase gradient was applied with […] TRIS buffer adjusted to pH 7.4 and MeCN. Therefore, the gradient was run from 5% […]
between the runs with a constant flow-rate of 0.8 ml/min and a temperature of 25 °C. The output wavelength of the detector was set to 269.5 nm. In order to calibrate the log D7.4 to the retention time, 6 different drugs with known log D7.4 were dissolved in DMSO and 10 µl were injected […]
Approximately 1 mg of the samples was dissolved in DMSO and 5 µl were injected. Analyses were conducted in duplicates. Subsequently, the mean retention times of the analytes were taken to calculate their log D7.4 values with aid of the calibration line.

CDK4 = biological target: T1, CDK4 (Homo sapiens, UniProt P11802); experiment: CDK4 degradation, western blot of MM.1S cells; format: cell-based; conditions: MM1.S, 16 h, read-out: D CDK4: remaining CDK4 levels
T1 construct: Percentage values are normalized to DMSO-treated MM.1S cells and the respective loading controls; endogenous in cells; host or cells: MM.1S (human multiple myeloma)
Description: (§1) We determined the concentration of both kinases and CRBN, the latter in order to control the expression of the corresponding ligase. Since IMiDs, such as pomalidomide, cause the degradation of the lymphoid transcription factors Ikaros (IKZF1) and Aiolos (IKZF3) through the involvement of CRBN,[53],[54] this undesired effect was inspected. […] As further characteristics of CDK4/6d, the desired selectivity of CDK6 over CDK4 degradation and the unwanted influence on the IKZF1 concentration were determined. […] Next, we determined the concentration- and time-dependent activity of 11 (Fig. S2, ESI ^†).
(§2) Multiple myeloma, leukaemia, and murine cell lines:
(§3) After respective designated treatments, cells were washed with 1× PBS and lysed in IP lysis buffer (Pierce) containing HALT protease and phosphatase inhibitor cocktail (Thermo Scientific). Sodium dodecyl sulfate-polyacrylamide gel electrophoresis (SDS-PAGE) was performed with 5–20 µg of protein loaded per sample. Gel electrophoresis was carried out at a constant voltage. Proteins were transferred onto Immobilon-P transfer membranes (Millipore). Membranes were blocked with 5% milk in Tris Buffered Saline with 0.05% Tween 20 (TBS-T) followed by overnight incubation at 4 °C with shaking in primary antibodies diluted in 5% BSA in TBS-T. After incubation with respective secondary HRP-conjugated antibodies diluted in 5% milk in TBST, detection of proteins was performed using either WesternBright ECL HRP substrate or WesternBright Sirius HRP substrate (Advansta). Chemiluminescence was detected with ChemiDoc™ XRS+ System (Bio-Rad). For further detection of other proteins on the same membrane, membranes were subjected to incubation in Restore Western Blot Stripping Buffer, followed by re-blocking, and further probing of proteins was […]

CDK6 [3] = biological target: T2, CDK6 (Homo sapiens, UniProt Q00534); experiment: CDK6 degradation, western blot of MM.1S cells; format: cell-based; conditions: for Selectivity ratio D CDK4/D CDK6 for the degradation of CDK6 over CDK4 / remaining activity at 0.1 µM / remaining activity at 1 µM: 16 h; for remaining activity at 0.1 µM / remaining activity at 1 µM: MM1.S, read-out: D CDK6: remaining CDK6 levels; for Time CDK6 degradation persists (CDK6 protein below 50%) after drug washout: 0.1 μM for 16 h, then washout with PBS; for Persistence of CDK6 degradation after single drug exposure (long-term treatment): no washout
T2 construct: Percentage values are normalized to DMSO-treated MM.1S cells and the respective loading controls; endogenous in cells; host or cells: MM.1S (human multiple myeloma)
Description: as §1, §2, §3

HEL cells = experiment: Cell viability assay (CellTiter-Glo), HEL cells; format: cell-based; conditions: Homo sapiens, 96 h
Protocol: as §2
(§4) Cells were seeded in 96-well plates with media containing indicated concentrations of respective compounds and plates were incubated at 37 °C for 96 hours. Readout was performed with CellTiter-Glo® Luminescent Cell Viability Assay (Promega) according to the manufacturer’s protocol and luminescence was measured with POLARStar Omega plate reader (BMG LabTech). All results were normalized to non-treated conditions and data represent mean ±SD of biological triplicates. […]
(§5) Dose response curves were modeled and plotted by using GraphPad Prism software (GraphPad Software). Statistical analysis was performed using GraphPad Prism software (GraphPad Software).
(§6) Variance of biological replicates is represented as the standard error of the mean (SEM) or as the […]

MDA-MB-231 cells = experiment: Cell viability assay (CellTiter-Glo), MDA-MB-231 breast cancer cells; format: cell-based, human; conditions: 96 h
Protocol: Breast cancer cell lines:
To access the compound effect on cell viability, cells were plated in 384-well tissue culture-treated plates (Greiner Bio One). Twenty-four hours later, tested compounds were added into culture to the desired concentrations. Cell viability was measured by using CellTiter-Glo® Luminescent Cell Viability Assay (Promega) at day 4 or day 7 post-treatment and normalized by non-treated controls. […]
as §5, §6

[4] = system: MM.1S, LP-1, AMO-1, MOLM-13, HEL, KG-1, K562, Nalm-6; experiment: Cell viability assay (CellTiter-Glo), multiple myeloma and leukemia cell lines; format: cell-based, human; conditions: 96 h, 0.1 or 1 μM
Protocol: as §2, §4, §5, §6

[5] = Susceptibility to hydrolysis in buffer, LC/MS; format: physicochemical; conditions: 37 °C; for Stability to hydrolysis at pH 1: buffer pH 1, 24 h
Protocol: Next, we investigated the persistence of CDK6 degradation after single drug exposure. […] The differences were even more pronounced when conducting a drug washout-step, showing that while BSJ-03-123 kept CDK6 protein below 50% for a maximum of 6 h, CDK6 degradation mediated by PROTACs 27 and 34 was more persistent and stable for up to 72 h (Fig. 4E and S10, ESI ^†). […] Since these degraders mainly differ in the ligase-binding part, we hypothesized that the deviations in the long-term experiments (Fig. 5A) are due to chemical inactivation of the CRBN ligand. We then tested compounds 27, 34 (VHL-based) and BSJ-03-123 (8, CRBN-based) for susceptibility to hydrolysis. These PROTACs were incubated in two different buffers for 24 h at 37 °C and aliquots were analysed by LC/MS.
Fig. 5 (A) Quantification of long-term treatment experiments (see Fig. S9, ESI ^†) and (B) drug stability data at pH 1 and pH 7.4. Acetonitrile solutions of the PROTACs were mixed with two different buffers and incubated for 24 hours at 37 °C. Subsequently, aliquots were analysed by LC/MS and normalized to acetonitrile solutions.

IKZF1 = biological target: T3, IKZF1 (Homo sapiens, UniProt Q13422+Q96SW2); experiment: Neosubstrate IKZF1 degradation, western blot of MM.1S cells; format: cell-based; conditions: MM1.S, 16 h, normalized to DMSO (100%), read-out: D IKZF1: remaining IKZF1 levels;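 also: test concentration 0.1 µM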
T3 construct: endogenous in cells; host or cells: MM.1S (human multiple myeloma)
Description: as §1, §2, §3

CDK6 [6] = biological target: T4, CDK6 (Mus musculus, UniProt Q64261); experiment: CDK6 degradation in murine cell lines 32D and Ba/F3, western blot; format: cell-based; conditions: 32D and Ba/F3 cells, 0.1 μM, 16 h
T4 construct: western blotting experiments with the murine myeloid 32D cell line and the murine pro-B-cell line Ba/F3; endogenous in cells; host or cells: 32D (murine myeloid) and Ba/F3 (murine pro-B)
Description: When bound to IMiDs, human CRBN induces the recruitment of the neosubstrates IKZF1 and IKZF3 via a Val-388 interaction,[53],[55] leading to their subsequent proteasomal degradation. […] The previously reported BRD4 degrader dBET1 was capable of binding to murine CRBN and performed as an active PROTAC in murine cells.[57],[58] To test whether our CRBN-based degrader 11 maintains CDK6 degradation across different species, we performed western blotting experiments with the murine myeloid 32D cell line and the murine pro-B-cell line Ba/F3 (Fig. 2A). […] While the activity of BSJ-03-123 (8) was attenuated at this concentration, 11 mediated on-target effects at concentrations as low as 10 nM (Fig. 2B).
Fig. 2 CDK6 degradation by CRBN-based degrader 11 is conserved in murine cell lines. (A) Human cell lines MM.1S and murine cell lines 32D and Ba/F3 were treated with vehicle, pomalidomide (POM), CDK6-selective degrader BSJ-03-123 (8), negative control 21, or PROTAC 11 at 0.1 μM for 16 h; (B) CDK6-degradation is induced in a dose-dependent manner in murine cells. Murine cell lines 32D and Ba/F3 were treated with PROTAC 11 at indicated concentrations for 16 h.
as §2
After respective designated treatments, cells were washed with 1× PBS and lysed in IP lysis buffer (Pierce) containing HALT protease and phosphatase inhibitor cocktail (Thermo Scientific). Sodium dodecyl sulfate-polyacrylamide gel electrophoresis (SDS-PAGE) was performed with 5–20 µg of protein loaded per sample. Gel electrophoresis was carried out at a constant voltage. Proteins were transferred onto Immobilon-P transfer membranes (Millipore). Membranes were blocked with 5% milk in Tris Buffered Saline with 0.05% Tween 20 (TBS-T) followed by overnight incubation at 4 °C with shaking in primary antibodies diluted in 5% BSA in TBS-T. After incubation with respective secondary HRP-conjugated antibodies diluted in 5% milk in TBST, detection of proteins was performed using either WesternBright ECL HRP substrate or WesternBright Sirius HRP substrate (Advansta). Chemiluminescence was detected with ChemiDoc™ XRS+ System (Bio-Rad). For further detection of other proteins on the same membrane, membranes were subjected to incubation in Restore Western Blot Stripping Buffer, followed by re-blocking, and further probing of proteins was carried out. Quantification was performed using ImageJ (National Institutes of Health). […]

[7] = 0.1 μM, MM.1S cells, normalized to DMSO (100%)
[8] = 1 μM, MM.1S cells, normalized to DMSO (100%)

T2 sequence (Q00534 whole entry): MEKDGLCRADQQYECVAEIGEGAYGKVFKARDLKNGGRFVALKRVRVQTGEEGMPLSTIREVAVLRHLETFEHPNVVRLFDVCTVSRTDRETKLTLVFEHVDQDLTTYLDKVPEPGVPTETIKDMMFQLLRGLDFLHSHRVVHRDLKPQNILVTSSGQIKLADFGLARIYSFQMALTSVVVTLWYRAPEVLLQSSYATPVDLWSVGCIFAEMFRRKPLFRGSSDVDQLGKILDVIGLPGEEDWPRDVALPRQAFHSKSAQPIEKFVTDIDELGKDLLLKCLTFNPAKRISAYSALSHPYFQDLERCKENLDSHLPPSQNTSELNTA
T1 sequence (P11802 whole entry): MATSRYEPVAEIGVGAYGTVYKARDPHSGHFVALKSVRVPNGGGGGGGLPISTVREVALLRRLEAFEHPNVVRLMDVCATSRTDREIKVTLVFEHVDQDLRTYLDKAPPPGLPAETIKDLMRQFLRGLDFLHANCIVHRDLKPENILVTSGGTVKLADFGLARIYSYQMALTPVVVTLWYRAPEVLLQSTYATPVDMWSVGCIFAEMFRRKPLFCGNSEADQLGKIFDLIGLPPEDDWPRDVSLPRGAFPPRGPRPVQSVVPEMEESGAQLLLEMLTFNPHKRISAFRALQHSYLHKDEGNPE
T3 sequence (Q13422 whole entry): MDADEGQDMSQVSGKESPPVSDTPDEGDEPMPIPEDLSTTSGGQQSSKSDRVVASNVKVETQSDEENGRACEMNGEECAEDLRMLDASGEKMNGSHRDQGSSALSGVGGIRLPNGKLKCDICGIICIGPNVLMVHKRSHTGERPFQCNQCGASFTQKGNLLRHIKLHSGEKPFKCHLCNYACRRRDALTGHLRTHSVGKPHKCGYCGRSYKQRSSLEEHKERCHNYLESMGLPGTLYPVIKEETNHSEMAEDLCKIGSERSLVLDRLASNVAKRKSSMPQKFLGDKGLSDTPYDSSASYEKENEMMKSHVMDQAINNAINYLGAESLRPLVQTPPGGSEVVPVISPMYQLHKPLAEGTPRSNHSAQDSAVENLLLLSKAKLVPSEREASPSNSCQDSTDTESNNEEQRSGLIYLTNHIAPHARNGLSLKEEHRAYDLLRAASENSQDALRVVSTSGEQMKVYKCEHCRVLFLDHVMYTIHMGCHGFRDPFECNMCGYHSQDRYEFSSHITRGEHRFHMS
T3 sequence (Q96SW2 whole entry): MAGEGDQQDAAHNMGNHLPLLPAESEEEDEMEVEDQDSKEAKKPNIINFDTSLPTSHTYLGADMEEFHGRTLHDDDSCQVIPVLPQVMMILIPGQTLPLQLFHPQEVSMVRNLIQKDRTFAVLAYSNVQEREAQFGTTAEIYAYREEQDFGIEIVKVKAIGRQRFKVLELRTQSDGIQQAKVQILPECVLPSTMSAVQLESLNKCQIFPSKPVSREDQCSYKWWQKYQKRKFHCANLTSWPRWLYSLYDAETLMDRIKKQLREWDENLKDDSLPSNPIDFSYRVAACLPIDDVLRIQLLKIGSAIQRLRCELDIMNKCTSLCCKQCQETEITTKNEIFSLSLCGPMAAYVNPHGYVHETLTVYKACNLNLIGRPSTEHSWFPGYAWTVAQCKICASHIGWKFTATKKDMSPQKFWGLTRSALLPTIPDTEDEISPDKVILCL
T3 sequence (Q16531 whole entry partner): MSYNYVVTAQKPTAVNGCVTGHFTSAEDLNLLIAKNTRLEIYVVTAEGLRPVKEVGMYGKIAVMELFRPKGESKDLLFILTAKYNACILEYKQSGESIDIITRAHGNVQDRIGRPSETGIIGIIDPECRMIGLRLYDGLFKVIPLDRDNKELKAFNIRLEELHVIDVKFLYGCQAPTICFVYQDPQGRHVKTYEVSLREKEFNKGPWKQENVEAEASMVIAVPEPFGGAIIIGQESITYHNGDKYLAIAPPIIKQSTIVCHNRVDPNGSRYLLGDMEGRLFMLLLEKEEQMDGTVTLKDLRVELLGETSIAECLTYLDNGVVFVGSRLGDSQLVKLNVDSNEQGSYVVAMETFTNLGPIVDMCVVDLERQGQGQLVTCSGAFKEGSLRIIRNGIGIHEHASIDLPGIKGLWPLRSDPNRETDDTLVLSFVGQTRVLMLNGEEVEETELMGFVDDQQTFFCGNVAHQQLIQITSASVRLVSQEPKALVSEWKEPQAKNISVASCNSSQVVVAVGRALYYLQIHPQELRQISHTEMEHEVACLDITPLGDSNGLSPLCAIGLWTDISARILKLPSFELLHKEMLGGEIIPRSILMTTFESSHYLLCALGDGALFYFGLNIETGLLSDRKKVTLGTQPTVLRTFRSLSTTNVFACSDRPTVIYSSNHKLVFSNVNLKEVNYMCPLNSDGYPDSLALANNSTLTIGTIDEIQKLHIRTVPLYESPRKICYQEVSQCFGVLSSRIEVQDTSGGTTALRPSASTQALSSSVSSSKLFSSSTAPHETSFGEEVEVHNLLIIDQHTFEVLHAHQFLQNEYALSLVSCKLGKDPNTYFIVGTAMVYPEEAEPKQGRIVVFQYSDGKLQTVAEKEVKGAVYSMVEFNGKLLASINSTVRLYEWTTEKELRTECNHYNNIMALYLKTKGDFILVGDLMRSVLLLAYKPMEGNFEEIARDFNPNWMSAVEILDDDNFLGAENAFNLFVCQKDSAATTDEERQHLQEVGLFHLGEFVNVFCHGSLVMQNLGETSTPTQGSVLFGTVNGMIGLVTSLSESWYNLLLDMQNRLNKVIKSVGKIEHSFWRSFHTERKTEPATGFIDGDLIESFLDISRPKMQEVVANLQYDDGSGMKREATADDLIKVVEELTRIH
T4 sequence (Q64261 whole entry): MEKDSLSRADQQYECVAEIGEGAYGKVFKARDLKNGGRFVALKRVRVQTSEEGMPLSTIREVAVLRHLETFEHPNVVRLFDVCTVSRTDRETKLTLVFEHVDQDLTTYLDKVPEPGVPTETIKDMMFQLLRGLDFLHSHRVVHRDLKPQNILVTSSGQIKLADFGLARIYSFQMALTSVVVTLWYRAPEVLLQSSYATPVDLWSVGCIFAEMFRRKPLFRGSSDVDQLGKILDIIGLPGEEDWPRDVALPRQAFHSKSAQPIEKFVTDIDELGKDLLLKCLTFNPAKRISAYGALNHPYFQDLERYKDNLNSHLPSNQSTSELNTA

Row | SMILES | Lit. log D7.4 [1] | chromatographic logD [2] | remaining activity at 0.1 µM (CDK4; [7]) [%] | Selectivity ratio D CDK4/D CDK6 for the degradation of CDK6 over CDK4 (CDK6 [3]; 0.1 μM, MM.1S cells) | remaining activity at 0.1 µM (CDK6 [3]; [7]) [%] | remaining activity at 1 µM (CDK6 [3]; [8]) [%] | Time CDK6 degradation persists (CDK6 protein below 50%) after drug washout (CDK6 [3]; MM.1S cells) | Persistence of CDK6 degradation after single drug exposure (long-term treatment) (CDK6 [3]; MM.1S cells) | Stability to hydrolysis at pH 1 [5] | other results
1 | CC1(C)C(C=C(Cl)Cl)C1C(=O)OCc1cccc(Oc2ccccc2)c1 (stereo not drawn) [Permethrin] | 6.50 |  |  |  |  |  |  |  |  | 
2 | CC(=O)c1c(C)c2cnc(Nc3ccc(N4CCN(CCOCCOCCOCC(=O)N[C@H](C(=O)N5C[C@H](O)C[C@H]5C(=O)N[C@@H](C)c5ccc(-c6scnc6C)cc5)C(C)(C)C)CC4)cn3)nc2n(C2CCCC2)c1=O [27 (CST620)] |  | 2.9 | 33 | 19 | 1.7 | 15 | up to 72 h | satisfactory CDK6 level suppression even after 96 h | stable | IC50 (HEL cells): 1540 nM; Inhibitory activity on cell viability relative to palbociclib (MDA-MB-231 cells): inhibitory activity comparable to palbociclib; Effect on cell proliferation ([4]; MM.1S, LP-1, AMO-1, MOLM-13, HEL, KG-1, K562, Nalm-6): inhibited cell proliferation
3 | CN[C@@H](C)C(=O)N[C@H](C(=O)N1C[C@@H](Oc2cccc(OCCOCCOCCOCCN3CCN(c4ccc(Nc5ncc6c(C)c(C(C)=O)c(=O)n(C7CCCC7)c6n5)nc4)CC3)c2)C[C@H]1C(=O)N[C@@H]1CCCc2ccccc21)C1CCCCC1 [compound 35] |  | 4.3 |  |  |  |  |  |  |  | remaining activity at 0.1 µM (CDK4): 77%; remaining activity at 0.1 µM (CDK6 [3]): 75%; remaining activity at 1 µM (CDK6 [3]): 18%; Cell viability compared with palbociclib, VHL-series PROTACs and IAP ligand 5 ([4]; MM.1S and Nalm-6 cells): more strongly impaired
4 | CC(=O)c1c(C)c2cnc(Nc3ccc(N4CCN(CCOCCOCCOCCNC(=O)COc5cccc6c5C(=O)N(C5CCC(=O)NC5=O)C6=O)CC4)cn3)nc2n(C2CCCC2)c1=O (stereo not drawn) [8 (BSJ-03-123), BSJ-03-123, reference compound] |  | 2.5 | 27 | 4.9 | 5.5 | 2.1 | ≤ 6 h | began to recover after 24 h | stable | remaining activity at 0.1 µM (IKZF1): 82%; CDK6 degradation in murine cells (CDK6 [6]): attenuated; Stability to hydrolysis at pH 7.4 ([5]; buffer pH 7.4, 24 h): pronounced decomposition
5 | COCCc1ccc(OCC(O)CNC(C)C)cc1 (stereo not drawn) [Metoprolol] | –0.06 |  |  |  |  |  |  |  |  | 
6 | COc1ccc([C@@H]2Sc3ccccc3N(CCN(C)C)C(=O)[C@@H]2OC(C)=O)cc1 [Diltiazem] | 2.70 |  |  |  |  |  |  |  |  | 
